Laboratory results reported in US20110081315A1, “NOVEL MACROCYCLIC INHIBITORS OF HEPATITIS C VIRUS REPLICATION” (INTERMUNE, INC., priority 2009, published 2011).
Like-named read-outs stand apart in the source and are kept apart here.

How the values were obtained:
[1] = target: NS3/NS4 complexes (Hepatitis C virus genotype 1a, UniProt P27958); experiment: NS3/NS4 inhibition assay (IC50); format: biochemical; settings: NS3/NS4 activity; 23° C., 25 μM NS4A peptide
Summary of the method: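 First, NS3 and NS4 are complexed; test compounds are then titrated against the complex at room temperature (23° C.) in Tris-HCl buffer, pH 7.5, supplemented with glycerol (15%), LDAO (0.6 mM), DTT (10 mM) and NS4A peptide (25 μM) to give IC50. Separately, replicon cells give EC50.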

[2] = tested on: hepatitis C replicon; experiment: hepatitis C replicon EC50 assay; format: cell-based; settings: Hepatitis C virus
Summary of the method: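 Read-outs are IC50 for inhibition of the NS3/NS4 complex and EC50 in an HCV replicon system. Biochemical runs use 23° C. and a 50 mM Tris-HCl (pH 7.5) buffer with 15% glycerol, 10 mM DTT, 0.6 mM LDAO and 25 μM NS4A peptide.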

[3] = hepatitis C replicon, read-out: EC50

NS3/NS4 complexes, sequence (P27958 1027-1657, one chain of several): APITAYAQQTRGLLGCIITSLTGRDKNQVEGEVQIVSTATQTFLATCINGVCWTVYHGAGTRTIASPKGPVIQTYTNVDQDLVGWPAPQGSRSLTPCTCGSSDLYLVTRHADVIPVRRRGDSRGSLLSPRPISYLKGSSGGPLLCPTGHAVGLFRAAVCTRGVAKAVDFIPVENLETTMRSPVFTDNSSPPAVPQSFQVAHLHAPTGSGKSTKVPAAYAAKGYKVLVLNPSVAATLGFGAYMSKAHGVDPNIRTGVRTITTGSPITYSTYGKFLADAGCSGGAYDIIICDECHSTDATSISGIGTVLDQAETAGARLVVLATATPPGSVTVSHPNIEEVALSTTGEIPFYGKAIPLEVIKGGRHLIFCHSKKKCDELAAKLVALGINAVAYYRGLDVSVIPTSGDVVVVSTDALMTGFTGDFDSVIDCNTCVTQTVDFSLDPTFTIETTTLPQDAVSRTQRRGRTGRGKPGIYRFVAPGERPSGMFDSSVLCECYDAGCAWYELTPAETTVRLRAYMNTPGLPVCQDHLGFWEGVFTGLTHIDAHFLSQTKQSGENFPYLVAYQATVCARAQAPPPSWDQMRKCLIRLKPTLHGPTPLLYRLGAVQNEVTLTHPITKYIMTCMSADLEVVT

Structure (SMILES) | IC50 [1] | EC50 [2, 3] | EC50 [2]
CC(C)n1c(O[C@@H]2C[C@H]3C(=O)N[C@]4(C(=O)NS(=O)(=O)N(C)C)C[C@H]4/C=C\CCCCC[C@H](NC(=O)OC(C)(C)C)C(=O)N3C2)nc2c(-c3nc(-c4ccccc4Cl)cs3)cccc21 [Compound 1749] | < 10 nM | 10 to 100 nM | –
COc1ccc2c(O[C@@H]3C[C@H]4C(=O)N[C@]5(C(=O)NS(=O)(=O)C6(C)CC6)C[C@H]5/C=C\CCCCC[C@H](Nc5cccc(C(=O)N6CCNCC6)c5)C(=O)N4C3)cc(-c3nc(C(C)C)cs3)nc2c1C [Compound 107] | < 10 nM | < 10 nM | –
CC(C)n1c(O[C@@H]2C[C@H]3C(=O)N[C@]4(C(=O)NS(=O)(=O)N(C)C)C[C@H]4/C=C\CCCCC[C@H](NC(=O)OC(C)(C)C)C(=O)N3C2)nc2c(-c3nc(Cc4ccc(F)c(F)c4)cs3)cccc21 [Compound 1755] | < 10 nM | 10 to 100 nM | –
Cc1sc(-c2cccc3c2nc(O[C@@H]2C[C@H]4C(=O)N[C@]5(C(=O)NS(=O)(=O)N(C)C)C[C@H]5/C=C\CCCCC[C@H](NC(=O)OC(C)(C)C)C(=O)N4C2)n3C(C)C)nc1C(C)(C)C [Compound 1207] | < 10 nM | 10 to 100 nM | –
CC(C)n1c(O[C@@H]2C[C@H]3C(=O)N[C@]4(C(=O)NS(=O)(=O)C5(C)CC5)C[C@H]4/C=C\CCCCC[C@H](NC(=O)OC(C)(C)C)C(=O)N3C2)nc2c(-c3nc(-c4ccc(F)cc4)cs3)cccc21 [Compound 1711] | < 10 nM | < 10 nM | –
CC(C)c1nc(-c2cccc3c2nc(O[C@@H]2C[C@H]4C(=O)N[C@]5(C(=O)NS(=O)(=O)C6(C)CC6)C[C@H]5/C=C\CCCCC[C@H](NC(=O)OC(C)(C)C)C(=O)N4C2)n3C(C)C)oc1C(C)C [Compound 1212] | < 10 nM | < 10 nM | –
CC(C)n1c(O[C@@H]2C[C@H]3C(=O)N[C@]4(C(=O)NS(=O)(=O)C5(C)CC5)C[C@H]4/C=C\CCCCC[C@H](NC(=O)OC4CCCC4)C(=O)N3C2)nc2c(-c3nc(C4CCCC4)cs3)cccc21 [Compound 1412] | < 10 nM | < 10 nM | –
CC(C)n1c(O[C@@H]2C[C@H]3C(=O)N[C@]4(C(=O)NS(=O)(=O)C5(C)CC5)C[C@H]4/C=C\CCCCC[C@H](Nc4ccccc4)C(=O)N3C2)nc2c(-c3cccc(C#N)c3)cccc21 [Compound 241] | < 10 nM | 10 to 100 nM | –
CC(C)n1c(O[C@@H]2C[C@H]3C(=O)N[C@]4(C(=O)NS(=O)(=O)C5(C)CC5)C[C@H]4/C=C\CCCCC[C@H](Nc4ccccc4)C(=O)N3C2)nc2c(C(=O)NCCc3ccccc3)cccc21 [Compound 275] | < 10 nM | 10 to 100 nM | –
CC(C)n1c(O[C@@H]2C[C@H]3C(=O)N[C@]4(C(=O)NS(=O)(=O)N5CCC5)C[C@H]4/C=C\CCCCC[C@H](NC(=O)OC(C)(C)C)C(=O)N3C2)nc2c(-c3nc(C4CCCC4)cs3)cccc21 [Compound 1745] | < 10 nM | 10 to 100 nM | –
CC(C)c1ccc2c(c1)nc(O[C@@H]1C[C@H]3C(=O)N[C@]4(C(=O)NS(=O)(=O)C5(C)CC5)C[C@H]4/C=C\CCCCC[C@H](Nc4ccccc4)C(=O)N3C1)n2C(C)C [Compound 202] | < 10 nM | > 100 nM | –
CC(C)n1c(O[C@@H]2C[C@H]3C(=O)N[C@]4(C(=O)NS(=O)(=O)N(C)C)C[C@H]4/C=C\CCCCC[C@H](NC(=O)OC(C)(C)C)C(=O)N3C2)nc2c(Cl)cccc21 [Compound 264] | < 10 nM | < 10 nM | –
CCCc1nc(-c2cccc3c2nc(O[C@@H]2C[C@H]4C(=O)N[C@]5(C(=O)NS(=O)(=O)N(C)C)C[C@H]5/C=C\CCCCC[C@H](NC(=O)OC(C)(C)C)C(=O)N4C2)n3C(C)C)sc1C [Compound 1209] | < 10 nM | < 10 nM | –
CC(C)n1c(O[C@@H]2C[C@H]3C(=O)N[C@]4(C(=O)NS(=O)(=O)C5(C)CC5)C[C@H]4/C=C\CCCCC[C@H](NC(=O)OC(C)(C)C)C(=O)N3C2)nc2c(-c3csc(-c4cc(F)cc(F)c4)n3)cccc21 [Compound 1703] | < 10 nM | 10 to 100 nM | –
CC(C)(C)OC(=O)N[C@H]1CCCCC/C=C\[C@@H]2C[C@@]2(C(=O)NS(=O)(=O)C2(C)CC2)NC(=O)[C@@H]2C[C@@H](n3nnc(-c4ccccc4)n3)CN2C1=O [Compound 801] | < 10 nM | 10 to 100 nM | –
CCc1csc(-c2cccc3c2nc(O[C@@H]2C[C@H]4C(=O)N[C@]5(C(=O)NS(=O)(=O)N(C)C)C[C@H]5/C=C\CCCCC[C@H](NC(=O)OC(C)(C)C)C(=O)N4C2)n3C(C)C)n1 [Compound 292] | < 10 nM | < 10 nM | –

Structure (SMILES) | IC50 [1] | EC50 [2, 3] | EC50 [2]
CC(C)n1c(O[C@@H]2C[C@H]3C(=O)N[C@]4(C(=O)NS(=O)(=O)C5(C)CC5)C[C@H]4/C=C\CCCCC[C@H](NC(=O)OC(C)(C)C)C(=O)N3C2)nc2c(NS(=O)(=O)Cc3ccccc3)cccc21 [Compound 1401] | < 10 nM | < 10 nM | –
CC(C)n1c(O[C@@H]2C[C@H]3C(=O)N[C@]4(C(=O)O)C[C@H]4/C=C\CCCCC[C@H](Nc4ccc(F)cc4)C(=O)N3C2)nc2c(-c3nc(C4CCCC4)cs3)cccc21 [Compound 1762] | 10 to 100 nM | > 100 nM | –
CC(C)n1c(O[C@@H]2C[C@H]3C(=O)N[C@]4(C(=O)NS(=O)(=O)C5(C)CC5)C[C@H]4/C=C\CCCCC[C@H](Nc4ccccc4)C(=O)N3C2)nc2c(-c3ccc(OC(F)(F)F)cc3)cccc21 [Compound 249] | < 10 nM | > 100 nM | –
CC(C)n1c(O[C@@H]2C[C@H]3C(=O)N[C@]4(C(=O)NS(=O)(=O)N(C)C)C[C@H]4/C=C\CCCCC[C@H](NC(=O)OC(C)(C)C)C(=O)N3C2)nc2c(-c3nc(C4CCCCC4)cs3)cccc21 [Compound 1770] | < 10 nM | 10 to 100 nM | –
COc1ccc(-c2csc(-c3cccc4c3nc(O[C@@H]3C[C@H]5C(=O)N[C@]6(C(=O)NS(=O)(=O)C7(C)CC7)C[C@H]6/C=C\CCCCC[C@H](NC(=O)OC(C)(C)C)C(=O)N5C3)n4C(C)C)n2)cc1 [Compound 1715] | < 10 nM | 10 to 100 nM | –
Cc1nc2cc(O[C@@H]3C[C@H]4C(=O)N[C@]5(C(=O)NS(=O)(=O)N(C)C)C[C@H]5/C=C\CCCCC[C@H](NC(=O)OC(C)(C)C)C(=O)N4C3)ccc2s1 [Compound 1253] | < 10 nM | > 100 nM | –
CCNC(=O)Nc1cccc2c1nc(O[C@@H]1C[C@H]3C(=O)N[C@]4(C(=O)NS(=O)(=O)C5(C)CC5)C[C@H]4/C=C\CCCCC[C@H](Nc4ccccc4)C(=O)N3C1)n2C(C)C [Compound 1405] | < 10 nM | 10 to 100 nM | –
Cc1nc2cc(O[C@@H]3C[C@H]4C(=O)N[C@]5(C(=O)NS(=O)(=O)C6(C)CC6)C[C@H]5/C=C\CCCCC[C@H](NC(=O)OC(C)(C)C)C(=O)N4C3)ccc2o1 [Compound 1251] | < 10 nM | 10 to 100 nM | –
CC(C)n1c(O[C@@H]2C[C@H]3C(=O)N[C@]4(C(=O)NS(=O)(=O)C5(C)CC5)C[C@H]4/C=C\CCCCC[C@H](NC(=O)O[C@@H]4C[C@@H]5C[C@@H]5C4)C(=O)N3C2)nc2c(-c3nc(-c4ccccc4)cs3)cccc21 [Compound 1731] | < 10 nM | < 10 nM | –
CC(C)n1c(O[C@@H]2C[C@H]3C(=O)N[C@]4(C(=O)NS(=O)(=O)N(C)C)C[C@H]4/C=C\CCCCC[C@H](NC(=O)OC(C)(C)C)C(=O)N3C2)nc2c(-c3nc(-c4ccccn4)cs3)cccc21 [Compound 1735] | < 10 nM | < 10 nM | –
CCn1c(O[C@@H]2C[C@H]3C(=O)N[C@]4(C(=O)NS(=O)(=O)N(C)C)C[C@H]4/C=C\CCCCC[C@H](NC(=O)OC(C)(C)C)C(=O)N3C2)nc2c(-c3nc(-c4ccccc4)cs3)cccc21 [Compound 1431] | < 10 nM | 10 to 100 nM | –
Cc1sc(-c2cccc3c2nc(O[C@@H]2C[C@H]4C(=O)N[C@]5(C(=O)NS(=O)(=O)C6(C)CC6)C[C@H]5/C=C\CCCCC[C@H](NC(=O)OC(C)(C)C)C(=O)N4C2)n3C(C)C)nc1Cc1ccccc1 [Compound 1217] | < 10 nM | < 10 nM | –
COc1ccc2c(O[C@@H]3C[C@H]4C(=O)N[C@]5(C(=O)NS(=O)(=O)C6(C)CC6)C[C@H]5/C=C\CCCCC[C@H](Nc5cccc(N)c5)C(=O)N4C3)cc(-c3nc(C(C)C)cs3)nc2c1C [Compound 102] | < 10 nM | – | < 10 nM
CC(C)n1c(O[C@@H]2C[C@H]3C(=O)N[C@]4(C(=O)NS(=O)(=O)N(C)C)C[C@H]4/C=C\CCCCC[C@H](NC(=O)OC(C)(C)C)C(=O)N3C2)nc2c(-c3nc(-c4ccc(-c5ccccc5)cc4)cs3)cccc21 [Compound 1753] | < 10 nM | 10 to 100 nM | –
CC(C)n1c(O[C@@H]2C[C@H]3C(=O)N[C@]4(C(=O)NS(=O)(=O)N(C)C)C[C@H]4/C=C\CCCCC[C@H](NC(=O)OC(C)(C)C)C(=O)N3C2)nc2c(-c3nc(CC4CCCCC4)cs3)cccc21 [Compound 1772] | < 10 nM | 10 to 100 nM | –
COc1ccc2c(O[C@@H]3C[C@H]4C(=O)N[C@]5(C(=O)NS(=O)(=O)C6(C)CC6)C[C@H]5/C=C\CCCCC[C@H](Nc5cccc(C(=O)N6CCN(C(=O)c7ccccc7)CC6)c5)C(=O)N4C3)cc(-c3nc(C(C)C)cs3)nc2c1C [Compound 115] | < 10 nM | < 10 nM | –
